# Laboratory results reported in patent US20190343801A1, “COMPOSITIONS AND METHODS FOR CONTROLLING NATURAL KILLER CELL ACTIVATION AND FUNCTION” (BAR ILAN UNIVERSITY, priority 2017, published 2019).
# Structures can show the parent of a compound that is named as a salt.
# What was measured:
# [1] = test system: F-actin retrograde flow in YTS and pNK F-tractin GFP cells; test: Live cell imaging and kymograph analysis of F-actin retrograde flow (ARF) in F-tractin GFP NK cells; type: cell-based; conditions: 25 μM Y-27, activating vs. inhibitory NKIS
# Excerpt: FIGS. […] In FIG. 5A, YTS F-tractin GFP cells were dropped over coverslips coated with anti-CD28 or anti-KIR1 antibodies, and imaged at 1 frame/sec through a single focal plane. […] Representative images are shown. Kymographs of F-actin dynamics were compiled along the contact site radius. […]
# The y axis represents F-actin velocity (μm/sec), and the x axis—time from initial spreading (sec).
# FIGS. 5E-5H. show analyses of NKIS area and ARF in the activating vs. inhibitory NKIS in the presence of Y-27632 (Y-27) inhibitor of myosin light chain (MLC) phosphorylation and/or JAS. […] NKIS area was determined using ImageJ. […]
# Analyses of actin and SHP-1 dynamics were performed by preparing kymographs from live cell videos and tracing the movement of the fluorescently tagged proteins. […] Velocity over distance from the center was determined by calculating the velocity of the tracked protein based on the distance traversed to time between each two points on the trace, and noting the relative location from the center of the measured area. […] For each bin, average velocity and standard error were calculated. Average distance traversed over time was calculated by measuring the location of the trace, relative to its point of origin at each time point after the beginning of the trace. For each relative time point from the beginning of a trace, an average distance and standard error were calculated. […]
# [2] = test system: myosin light chain (MLC) phosphorylation on Serine 19; test: Immunoblot of myosin light chain phosphorylation with anti-pMLC (Ser19); type: cell-based; conditions: 25 μM Y-27 for 15 min
# Procedure: YTS-2DL1 cells were treated with 25 μM of Y-27 for 15 min at 37° C., or left untreated. Cells were incubated at 37° C. with […] target cells for 5 min, 1 μM of JAS was added, and cells were incubated for 5 min. Cell lysates were analyzed by IB for phosphorylation of myosin light chain using anti-pMLC (Ser19) antibodies.
# For analysis of whole cell lysates, 1-10×10^5 cells were used, and for IP experiments, 10-15×10^6 cells were used. Protein A/G plus-Agarose beads (Santa Cruz Biotechnology) were used for IP. Protein samples were resolved with sodium dodecyl sulfate-polyacrylamide gel electrophoresis (SDS-PAGE), transferred to nitrocellulose membrane, and immunoblotted with the appropriate primary antibodies. Immunoreactive proteins were detected with either anti-mouse or anti-rabbit horseradish peroxidase-coupled secondary antibody followed by detection by enhanced chemiluminescence (PerkinElmer).
smiles,measurement,setting,value
"C[C@@H](N)C1CCC(C(=O)Nc2ccncc2)CC1 (stereo partly drawn) [Formula Y-27, 4-[(1R)-1-aminoethyl]-N N-4-pyridinyl-trans-cyclohexanecarboxamide, dihydrochloride]",F-actin flow,[1],complete arrest of F-actin flow
same,MLC phosphorylation (pMLC S19),[2],significant reduction in phosphorylation
